Columns and labels:
[1] = molecular target: T1, PPARα (Homo sapiens, UniProt Q07869); assay: PPARα transactivation activity (GAL4-hPPARα LBD / UASx4-TK-LUC reporter in CV-1 cells); format: cell-based; conditions: for Emax: CV-1, in the manner as described in Example 9, Table 26, read-out: PPARα (PPAR activating power)
T1 construct: Receptor expression plasmid (GAL4-hPPARα, LBD GAL4-hPPARγ LBD, GAL4-hPPARδ LBD); expressed in transfected cells; host or cells: CV-1 cells
T1 sequence (Q07869 239-466 limits assumed): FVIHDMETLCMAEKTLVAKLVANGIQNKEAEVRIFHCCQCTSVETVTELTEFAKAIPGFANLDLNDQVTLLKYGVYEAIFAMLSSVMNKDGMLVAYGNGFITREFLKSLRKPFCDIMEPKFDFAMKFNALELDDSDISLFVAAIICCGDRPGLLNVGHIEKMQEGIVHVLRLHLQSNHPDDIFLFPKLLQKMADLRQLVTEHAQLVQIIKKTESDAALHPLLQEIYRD
Method: (§1) (1) Measurement of PPARα,γ,δ Transactivation Activity
(§2) PPARα,γ,δ transactivation activity of each compound [Examples 1-6 and known PPARδ agonist (L-16504: Berger, J., et al. (1999), J. Biol. Chem., 274:6718-6725)] was measured in the manner described below.
(§3) CV-1 was obtained from Tohoku University Aging Medical Laboratory, Medical Cell Collection Center. All test compounds were dissolved in dimethylsulfoxide (DMSO) to give a test sample of 0.1% concentration.
(§4) Receptor expression plasmid (GAL4-hPPARα, LBD GAL4-hPPARγ LBD, GAL4-hPPARδ LBD), Reporter plasmid (UASx4-TK-LUC), and β-galactosidase expression plasmid (βGAL) similar to Kliewer, S. A., et al., ((1992) Nature, 358:771-774) were employed.
(§5) CV-1 cells were seeded in 24 well culture plates at 2×10^5 cells per well, and cultured for 24 hours using 4%-fetal bovine serum(FBS)-added OPTI-MEM I Reduced Serum Medium (Life Technologies, 500 μL/well). Subsequently, the cells were washed with non serum-added OPTI-MEM. To the washed cells were added DNA-containing solution [the following components were contained in the one well solution (250 μl): 0.03 μg of GAL4-hPPARδ LBD, 0.25 μg of UASx4-TK-LUC, 0.35 μg of βGAL, and 2 μL of lipofection reagent, DMRIE-C (Life Technologies). These components were dissolved in OPTI-MEM and allowed to stand for 30 minutes at room temperature]. The cells were incubated for 5 hours at 37° C.
(§6) The cells were then incubated for 40 hours in 500 μL of fresh OPTI-MEM containing 4% FBS and the test compound (dissolved in 100% DMSO to reach a final concentration: 10^−4M or 10^−5M).
(§7) The culture medium was removed and the cells were washed with PBS twice. Cell lysates were produced using a solubilizing buffer (25 mM Tris-PO4 (pH 7.8), 15%v/v glycerol, 2% CHAPS, 1% Lecithin, 1% BSA, 4 mM EGTA (pH 8.0), 8 mM MgCl2, 1 mM DTT). A portion (20 μL) of the solution was transferred onto a 96-well plate. Subsequently, 100 μL of luciferase substrate solution (Piccagene: available from Nippon Gene Co., Ltd.) was added, and a luminous intensity per one sec. (luciferase activity) was measured by means of MLR-100 type Microluminoreader (available from Corona Electrics Co., Ltd.). Further, the activity caused by […] incorporation which was incorporated into the cells simultaneously with the incorporation of the luciferase gene was measured, for correcting variation of luciferase activity by the addition of the compound, utilizing the transfection efficiency of the incorporated gene. β-Galactosidase activity was measured by the following method: 50 μL of the solubilized sample was placed on another 96-well plate; 10 μL of ONPG (2-nitrophenyl-β-galactopyranoside) solution was added; incubation was carried out for 5 minutes at room temperature; 50 μL of a reaction stopping solution (1M sodium carbonate solution) was added; and the absorbance at 414 nm was measured.

[2] = molecular target: T2, PPARγ (Homo sapiens, UniProt P37231); assay: PPARγ transactivation activity (GAL4-hPPARγ LBD / UASx4-TK-LUC reporter in CV-1 cells); format: cell-based; conditions: for Emax: CV-1, in the manner as described in Example 9, Table 26, read-out: PPARγ (PPAR activating power)
T2 construct: Receptor expression plasmid (GAL4-hPPARα, LBD GAL4-hPPARγ LBD, GAL4-hPPARδ LBD); expressed in transfected cells; host or cells: CV-1 cells
T2 sequence (P37231 238-503 limits assumed): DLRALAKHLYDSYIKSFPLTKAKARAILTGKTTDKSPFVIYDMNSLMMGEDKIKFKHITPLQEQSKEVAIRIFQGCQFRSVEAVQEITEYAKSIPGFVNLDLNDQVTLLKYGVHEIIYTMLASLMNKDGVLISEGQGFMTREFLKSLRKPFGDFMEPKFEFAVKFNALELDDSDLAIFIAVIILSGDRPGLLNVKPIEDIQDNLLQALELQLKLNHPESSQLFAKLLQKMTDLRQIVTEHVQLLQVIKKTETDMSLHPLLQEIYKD
Method: In the same manner, relative ligand activities to PPARδ and γ transactivation activitis are calculated (see the below-mentioned Example 9).
as §1, §2, §3, §4, §5, §6, §7

[3] = molecular target: T3, PPARδ (Homo sapiens, UniProt Q03181); assay: PPARδ transactivation activity (GAL4-hPPARδ LBD / UASx4-TK-LUC reporter in CV-1 cells); format: cell-based; conditions: for Emax: CV-1, 40 h, in the manner as described in Example 9, Table 26, read-out: PPARδ (PPAR activating power)
T3 construct: A chimeric receptor expression plasmid (GAL4-hPPARδ LBD); expressed in transfected cells; host or cells: CV-1 cells
T3 sequence (Q03181 211-439 limits assumed): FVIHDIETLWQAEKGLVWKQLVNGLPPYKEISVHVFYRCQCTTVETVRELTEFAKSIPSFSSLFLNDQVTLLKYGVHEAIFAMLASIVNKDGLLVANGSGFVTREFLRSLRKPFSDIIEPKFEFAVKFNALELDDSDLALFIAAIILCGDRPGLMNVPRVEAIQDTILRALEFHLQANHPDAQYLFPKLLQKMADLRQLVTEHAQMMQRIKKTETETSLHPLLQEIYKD
Method: A chimeric receptor expression plasmid (GAL4-hPPARδ LBD), a reporter plasmid (UASx4-TK-LUC) and β-galactosidase (β-GAL) are transfected into CV-1 cells by utilizing a lipofection reagent DMRIE-C (Life Technologies).
as §1
CV-1 was obtained from Tohoku University Aging Medical Laboratory, Medical Cell Collection Center.
as §5, §6, §7

[4] = compound at 10^−5 M, CV-1 cells, Table 25

Structure (SMILES)	Emax [1] [%]	Emax [2] [%]	Emax [3] [%]	activity to PPARδ relative to activity to PPARα and γ (selectivity) ([3]; CV-1 cells, GAL4-hPPAR LBD reporter, relative activities vs control reagents)	melting point [°C]	PPARα transactivation activity: a relative value (control = 100%) [1, 4] [%]	PPARγ transactivation activity: a relative value (control = 100%) [2, 4] [%]	PPARδ transactivation activity: a relative value (control = 100%) [3, 4] [%]
CC(C)c1oc(-c2ccc(Cl)cc2Cl)nc1CCC(=O)c1ccc(OC(C)(C)C(=O)O)cc1 [Example 7-4, 2-[4-[3-[2-(2,4-Dichlorophenyl)-5-isopropyl-4-oxazolyl]propionyl]phenyloxy]-2-methylpropionic acid]	1	2	86 ± 10	higher	100 to 105			
CC(C)c1oc(-c2cc3ccccc3o2)nc1CCC(=O)c1ccc(OC(C)(C)C(=O)O)cc1 [Example 7-7, 2-[4-[3-[2-(2-Benzofuranyl)-5-isopropyl-4-oxazolyl]propionyl]phenyloxy]-2-methylpropionic acid]	1	9	65 ± 2		135 to 139			
CC(C)c1oc(-c2ccc(Cl)cc2Cl)nc1CCC(=O)c1cccc(OC(C)(C)C(=O)O)c1 [Example 8-2, 2-[3-[3-[2-(2,4-Dichlorophenyl)-5-isopropyl-4-oxazolyl]propionyl]phenyloxy)-2-methylpropionic acid]					115 to 120			
CC(C)c1oc(-c2ccccc2Cl)nc1CCC(=NO)c1ccc(OC(C)(C)C(=O)O)cc1 [Example 3, 2-[4-[3-[2-(2-Chlorophenyl)-5-isopropyl-4-oxazolyl](1-hydroxyimino)propyl]phenyloxy]-2-methyl-propionic acid]						10	16	19

— US6787552B2, “PPAR delta activators” (Nippon Chemiphar Co., Ltd., priority 2000, dated 2004)
